Results published in patent publication US11173142B2, “Cancer treatment composition” (BOTANICAL RESOURCE HOLDINGS (PROPRIETARY) LIMITED, priority 2015, dated 2021).

Experiments:
[1] = system: normal breast epithelial cells (MCF-12A); experiment: XTT viability assay, normal breast epithelial cells, 24-hour treatment with isolates; type: cell-based; settings: 24 hour incubation, highest dose assessed, FIG. 4
Protocol: (§1) To calculate doses, the concentrations of the specific components for serving sizes of 15 mg, 30 mg and 60 mg per person per day for Δ7 mesembrenone, mesembrenone and non-alkaloids respectively were expressed as a fraction of total body fluid volume. In an attempt to account for digestive losses, these concentrations were halved, to reach cell-culture “equivalent” doses of 0.5 ug/ml, 1 ug/ml and 2 ug/ml respectively. Following standard laboratory practice, a range of doses around these was assessed. For clarity, only 3 concentrations per component are presented (doses of 10-fold smaller were also tested for ail components, but were not different from lowest doses presented herein and thus omitted).
(§2) Briefly, the procedure itself entailed 24-hour treatment of confluent cell culture samples of normal breast epithelial cells (MCF-12A) and breast epithelial carcinoma cells (MCF-7) with varying doses of the test products. At the end of this period, the mitochondrial viability of cells was assessed using the XTT assay method. Viability was measured and expressed relative to an appropriate control.
Results are illustrated in FIG. 4 of the accompanying drawings. Results are expressed as the percentage of viable cells after a 24 hour incubation with the test substances. […]

[2] = system: breast epithelial carcinoma cells (MCF-7); experiment: XTT viability assay, breast epithelial carcinoma cells, 24-hour treatment with isolates; type: cell-based; settings: 24 hour incubation, FIG. 4; for effect on viability of cancer cells: 3 concentrations per component around 0.5, 1 and 2 ug/ml respectively
Protocol: as §1, §2
Results are illustrated in FIG. 4 of the accompanying drawings. Results are expressed as the percentage of viable cells after a 24 hour incubation with the test substances. Bars are means of repeated experiments (a minimum of 3 repeat experiments in triplicate) and error bars indicate standard deviations from the mean. Asterisk (*) indicate significant reductions in cancer cell viability.

Row | SMILES | effect on normal cell survival [1] | effect on viability of cancer cells [2] | anti-cancer effect compared with the other isolates ([2]; Δ7 mesembrenone dosed 50% less than mesembrenone)
1 | COc1ccc([C@@]23C=CC(=O)C[C@@H]2N(C)CC3)cc1OC [mesembrenone] | seemed to limit growth of normal cells to some extent | clear dose-response effects | 
2 | COc1ccc(C23CCC(=O)C=C2N(C)CC3)cc1OC (centres unmarked) [Δ7 mesembrenone] | not affecting normal cell survival | clear dose-response effects | most potent anti-cancer effect
